According to US9611221B2, “Histone demethylase inhibitors” (CELGENE QUANTICEL RESEARCH, INC., priority 2012, dated 2017):

Assays:
JMJD2C = JMJD2C (Homo sapiens (Human), UniProt Q9H3R0); test: JMJD2C in vitro enzyme inhibition assay (TR-FRET); format: biochemical; details: 0.3 nM JMJD2C, 300 nM H3K9me3-biotin peptide, 2 μM alpha-ketoglutaric acid
Description: (§1) This assay determines the ability of a test compound to inhibit Jarid1A, Jarid1B, and JMJD2C demethylase activity. Baculovirus expressed Jarid1A (GenBank Accession #NM_001042603, AA1-1090) was purchased from BPS Bioscience (Cat#50110). Baculovirus expressed Jarid1B (GenBank Accession #NM_006618, AA 2-751) was purchased from BPS Bioscience (Cat #50121) or custom made by MolecularThroughput. Baculovirus expressed JMJD2C (GenBank Accession #BC143571, AA 2-372) was purchased from BPS Bioscience (Cat#50105).
The ability of test compounds to inhibit the activity of JMJD2C was determined in 384-well plate format under the following reaction conditions: 0.3 nM JMJD2C, 300 nM H3K9me3-biotin labeled peptide (Anaspec cat #64360), 2 μM alpha-ketoglutaric acid in assay buffer of 50 mM HEPES, pH7.3, 0.005% Brij35, 0.5 mM TCEP, 0.2 mg/ml BSA, 50 μM sodium L-ascorbate, and 2 μM ammonium iron(II) sulfate. Reaction product was determined quantitatively by TR-FRET after the addition of detection reagent Phycolink Streptavidin-allophycocyanin (Prozyme) and Europium-anti-di-methylated histone H3 lysine 9 (H3K9me2) antibody (PerkinElmer) in the presence of 5 mM EDTA in LANCE detection buffer (PerkinElmer) at a final concentration of 50 nM and 1 nM, respectively.
(§2) The reaction mixture was incubated at room temperature for 30 minutes, and terminated by the addition of 6 μl of 5 mM EDTA in LANCE detection buffer containing 100 nM Phycolink Streptavidin-allophycocyanin and 2 nM Europium-anti-H3K9me2 antibody. Plates were read by EnVisionMultilabel Reader in TR-FRET mode (excitation at 320 nm, emission at 615 nm and 665 nm) after 1 hour incubation at room temperature. A ratio was calculated (665/615) for each well and fitted to determine inhibition constant (IC50).

Jarid1B = Jarid1B (Homo sapiens (Human), UniProt Q9UGL1); test: Jarid1B in vitro enzyme inhibition assay (TR-FRET); format: biochemical; details: 0.8 nM Jarid1B, 300 nM H3K4me3-biotin peptide, 2 μM alpha-ketoglutaric acid
Chain of Jarid1B (Q9UGL1 2-751): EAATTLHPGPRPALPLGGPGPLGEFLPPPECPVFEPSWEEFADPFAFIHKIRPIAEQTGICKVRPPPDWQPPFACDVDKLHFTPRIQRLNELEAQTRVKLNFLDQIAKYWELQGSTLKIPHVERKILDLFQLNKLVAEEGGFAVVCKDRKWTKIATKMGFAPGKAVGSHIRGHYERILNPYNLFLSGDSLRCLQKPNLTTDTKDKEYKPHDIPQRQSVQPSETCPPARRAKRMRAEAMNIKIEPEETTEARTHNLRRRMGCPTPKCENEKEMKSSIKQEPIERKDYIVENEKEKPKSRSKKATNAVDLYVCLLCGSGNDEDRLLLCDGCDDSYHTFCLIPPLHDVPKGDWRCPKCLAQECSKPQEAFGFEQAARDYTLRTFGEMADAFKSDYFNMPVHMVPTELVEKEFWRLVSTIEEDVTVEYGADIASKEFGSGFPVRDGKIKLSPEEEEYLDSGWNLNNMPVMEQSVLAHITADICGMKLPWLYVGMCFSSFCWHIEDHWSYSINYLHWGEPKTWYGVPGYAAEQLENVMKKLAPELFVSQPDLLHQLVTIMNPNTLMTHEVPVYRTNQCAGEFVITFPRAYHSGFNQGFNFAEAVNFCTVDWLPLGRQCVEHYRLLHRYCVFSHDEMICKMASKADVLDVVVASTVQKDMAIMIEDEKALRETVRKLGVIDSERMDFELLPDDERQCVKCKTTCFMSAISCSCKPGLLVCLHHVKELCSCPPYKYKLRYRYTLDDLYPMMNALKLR
Description: as §1
The ability of test compounds to inhibit the activity of Jarid1B was determined in 384-well plate format under the following reaction conditions: 0.8 nM Jarid1B, 300 nM H3K4me3-biotin labeled peptide (Anaspec cat #64357), 2 μM alpha-ketoglutaric acid in assay buffer of 50 mM HEPES, pH7.3, 0.005% Brij35, 0.5 mM TCEP, 0.2 mg/ml BSA, 50 μM sodium L-ascorbate, and 2 μM ammonium iron(II) sulfate. Reaction product was determined quantitatively by TR-FRET after the addition of detection reagent Phycolink Streptavidin-allophycocyanin (Prozyme) and Europium-anti-mono- or di-methylated histone H3 lysine 4 (H3K4me1-2) antibody (PerkinElmer) in the presence of 5 mM EDTA in LANCE detection buffer (PerkinElmer) at a final concentration of 25 nM and 1 nM, respectively.
as §2, with “50” for “100”, “Europium-anti-H3K4me1-2” for “Europium-anti-H3K9me2”

Chain of JMJD2C (Q9H3R0 2-372): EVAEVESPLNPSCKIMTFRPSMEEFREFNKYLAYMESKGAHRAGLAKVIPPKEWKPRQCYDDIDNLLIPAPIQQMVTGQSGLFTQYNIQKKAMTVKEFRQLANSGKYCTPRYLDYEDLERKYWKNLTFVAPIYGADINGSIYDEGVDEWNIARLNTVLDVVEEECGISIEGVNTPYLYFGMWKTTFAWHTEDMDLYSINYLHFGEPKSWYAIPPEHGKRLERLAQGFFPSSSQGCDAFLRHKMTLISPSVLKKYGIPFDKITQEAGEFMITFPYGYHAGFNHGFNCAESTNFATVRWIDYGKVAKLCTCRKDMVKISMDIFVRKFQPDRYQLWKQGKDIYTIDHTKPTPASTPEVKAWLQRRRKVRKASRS

O=C(O)c1ccncc1NCc1ccccc1F [Example 2, 3-[(2-fluorobenzyl)amino)pyridine-4-carboxylic acid]
IC50 (JMJD2C): ≤ 100 nM
IC50 (Jarid1B): ≤ 100 nM

O=C(O)c1ccncc1NCc1cccc(F)c1 [Example 3, 3-[(3-fluorobenzyl)amino)pyridine-4-carboxylic acid]
IC50 (JMJD2C): ≤ 100 nM
IC50 (Jarid1B): ≤ 100 nM

O=C(O)c1ccncc1NCC1CCCc2ccc(-c3ccccc3)cc21 (centres unmarked) [Example 73, 3-{[(7-phenyl-1,2,3,4-tetrahydronaphthalen-1-yl)methyl]amino}pyridine-4-carboxylic acid]
IC50 (JMJD2C): 100 to 1000 nM

COc1cccc2c1CCCC2CNc1cnccc1C(=O)O (centres unmarked) [Example 74, 3-{[(5-methoxy-1,2,3,4-tetrahydronaphthalen-1-yl)methyl]amino}pyridine-4-carboxylic acid]
IC50 (JMJD2C): 100 to 1000 nM

O=C(O)c1ccncc1NCC1CCOc2cc(C3CC3)ccc21 (centres unmarked) [Example 75, 3-{[(7-cyclopropyl-3,4-dihydro-2H-chromen-4-yl)methyl]amino}pyridine-4-carboxylic acid]
IC50 (JMJD2C): 100 to 1000 nM

O=C(O)c1ccncc1NCC1CCCc2c(OCC3CC3)cccc21 (centres unmarked) [Example 76]
IC50 (JMJD2C): 1000 to 10000 nM

O=C(O)c1ccncc1NCC1CCCc2c(Oc3ccccc3)cccc21 (centres unmarked) [Example 77, 3-{[(5-phenoxy-1,2,3,4-tetrahydronaphthalen-1-yl)methyl]amino}pyridine-4-carboxylic acid]
IC50 (JMJD2C): 1000 to 10000 nM

O=C(O)c1ccncc1NCC1CCSc2ccccc21 (centres unmarked) [Example 78, 3-[(3,4-dihydro-2H-thiochromen-4-ylmethyl)amino]pyridine-4-carboxylic acid]
IC50 (JMJD2C): 100 to 1000 nM

O=C(O)c1ccncc1NCC1CCCc2cc(OCCC(F)(F)F)ccc21 (centres unmarked) [Example 79]
IC50 (JMJD2C): 100 to 1000 nM

O=C(O)c1ccncc1NCC1CCCc2cc(OCC3CC3)ccc21 (centres unmarked) [Example 81]
IC50 (JMJD2C): 100 to 1000 nM

CN1CCC(CNc2cnccc2C(=O)O)c2ccccc21 (centres unmarked) [Example 82, 3{[(1-methyl-1,2,3,4-tetrahydroquinolin-4-yl)methyl]amino}pyridine-4-carboxylic acid]
IC50 (JMJD2C): 100 to 1000 nM

O=C(O)c1ccncc1NC[C@H]1CCOc2cc(-c3ccccc3)ccc21 [Example 83, 3-({[(4S)-7-phenyl-3,4-dihydro-2H-chromen-4-yl]methyl}amino)pyridine-4-carboxylic acid]
IC50 (JMJD2C): 100 to 1000 nM

O=C(O)c1ccncc1NC[C@@H]1CCOc2cc(-c3ccccc3)ccc21 [Example 84, 3-({[(4R)-7-phenyl-3,4-dihydro-2H-chromen-4-yl]methyl}amino)pyridine-4-carboxylic acid]
IC50 (JMJD2C): 100 to 1000 nM

O=C(O)c1ccncc1NC[C@H]1CCOc2cc(-c3cccc(F)c3)ccc21 [Example 85, 3-({[(4S)-7-(3-fluorophenyl)-3,4-dihydro-2H-chromen-4-yl]methyl}amino)pyridine-4-carboxylic acid]
IC50 (JMJD2C): 100 to 1000 nM

O=C(O)c1ccncc1NC[C@@H]1CCOc2cc(-c3cccc(F)c3)ccc21 [Example 86, 3-({[(4R)-7-(3-fluorophenyl)-3,4-dihydro-2H-chromen-4-yl]methyl}amino)pyridine-4-carboxylic acid]
IC50 (JMJD2C): 1000 to 10000 nM

O=C(O)c1ccncc1NC[C@H]1CCOc2cc(C3CC3)ccc21 [Example 87, 3-({[(4S)-7-cyclopropyl-3,4-dihydro-2H-chromen-4-yl]methyl}amino)pyridine-4-carboxylic acid]
IC50 (JMJD2C): ≤ 100 nM

O=C(O)c1ccncc1NC[C@@H]1CCOc2cc(C3CC3)ccc21 [Example 88, 3-({[(4R)-7-cyclopropyl-3,4-dihydro-2H-chromen-4-yl]methyl}amino)pyridine-4-carboxylic acid]
IC50 (JMJD2C): 100 to 1000 nM

O=C(O)c1ccncc1NCC1CCCc2cc(OCCc3ccccc3)ccc21 (centres unmarked) [Example 89, 3-({[6-(2-phenylethoxy)-1,2,3,4-tetrahydronaphthalen-1-yl]methyl}amino)pyridin-4-carboxylic acid]
IC50 (JMJD2C): 100 to 1000 nM

O=C(O)c1ccncc1NCC1CCCc2cc(OCC(F)(F)F)ccc21 (centres unmarked) [Example 90, 3-({[6-(2,2,2-trifluoroethoxy)-1,2,3,4-tetrahydronaphthalen-1-yl]methyl}amino)pyridine-4-carboxylic acid]
IC50 (JMJD2C): 100 to 1000 nM

O=C(O)c1ccncc1NCC1CCOc2cc(CCC3CC3)ccc21 (centres unmarked) [Example 91, 3-({[7-(2-cyclopropylethyl)-3,4-dihydro-2H-chromen-4-yl]methyl}amino)pyridine-4-carboxylic acid]
IC50 (JMJD2C): 100 to 1000 nM

O=C(O)c1ccncc1NCC1CCCc2cc(OC(F)(F)F)ccc21 (centres unmarked) [Example 92, 3-({[6-(trifluoromethoxy)-1,2,3,4-tetrahydronaphthalen-1-yl]methyl}amino)pyridine-4-carboxylic acid]
IC50 (JMJD2C): 1000 to 10000 nM

O=C(O)c1ccncc1NC[C@H]1CCOc2cc(-c3ccc(F)cc3)ccc21 [Example 93, 3-({[(4S)-7-(4-fluorophenyl)-3,4-dihydro-2H-chromen-4-yl]methyl}amino)pyridine-4-carboxylic acid]
IC50 (JMJD2C): 100 to 1000 nM

O=C(O)c1ccncc1NC[C@@H]1CCOc2cc(-c3ccc(F)cc3)ccc21 [Example 94, 3-({[(4R)-7-(4-fluorophenyl)-3,4-dihydro-2H-chromen-4-yl]methyl}amino)pyridine-4-carboxylic acid]
IC50 (JMJD2C): 1000 to 10000 nM

O=C(O)c1ccncc1NC[C@H]1CCOc2cc(-c3ccccc3F)ccc21 [Example 95, 3-({[(4S)-7-(2-fluorophenyl)-3,4-dihydro-2H-chromen-4-yl]methyl}amino)pyridine-4-carboxylic acid]
IC50 (JMJD2C): 100 to 1000 nM

O=C(O)c1ccncc1NC[C@@H]1CCOc2cc(-c3ccccc3F)ccc21 [Example 96, 3-({[(4R)-7-(2-fluorophenyl)-3,4-dihydro-2H-chromen-4-yl]methyl}amino)pyridine-4-carboxylic acid]
IC50 (JMJD2C): 1000 to 10000 nM

O=C(O)c1ccncc1NC[C@H]1CCCc2cc(OCCC3CC3)ccc21 [Example 97, 3-({[(1S)-6-(2-cyclopropylethoxy)-1,2,3,4-tetrahydronaphthalen-1-yl]methyl}amino)pyridine-4-carboxylic acid]
IC50 (JMJD2C): 100 to 1000 nM

O=C(O)c1ccncc1NC[C@@H]1CCCc2cc(OCCC3CC3)ccc21 [Example 98, 3-({[(1R)-6-(2-cyclopropylethoxy)-1,2,3,4-tetrahydronaphthalen-1-yl]methyl}amino)pyridine-4-carboxylic acid]
IC50 (JMJD2C): 1000 to 10000 nM

O=C(O)c1ccncc1NC[C@H]1CCCc2cc(OCCC(F)(F)F)ccc21 [Example 99, 3-({[(1S)-6-(3,3,3-trifluoropropoxy)-1,2,3,4-tetrahydronaphthalen-1-yl]methyl}amino)pyridine-4-carboxylic acid]
IC50 (JMJD2C): 100 to 1000 nM

O=C(O)c1ccncc1NC[C@@H]1CCCc2cc(OCCC(F)(F)F)ccc21 [Example 100, 3-({[(1R)-6-(3,3,3-trifluoropropoxy)-1,2,3,4-tetrahydronaphthalen-1-yl]methyl}amino)pyridine-4-carboxylic acid]
IC50 (JMJD2C): 100 to 1000 nM

O=C(O)c1ccnnc1NCC1CCCc2cc(OCCC(F)(F)F)ccc21 (centres unmarked) [Example 101, 3-({[6-(3,3,3-trifluoropropoxy)-1,2,3,4-tetrahydronaphthalen-1-yl]methyl}amino)pyridazine-4-carboxylic acid]
IC50 (JMJD2C): 100 to 1000 nM

COc1ccc2c(c1F)CCCC2CNc1cnccc1C(=O)O (centres unmarked) [Example 102, 3-{[(5-fluoro-6-methoxy-1,2,3,4-tetrahydronaphthalen-1-yl)methyl]amino}pyridine-4-carboxylic acid]
IC50 (JMJD2C): 100 to 1000 nM

Cc1ccc2c(c1C)CCCC2CNc1cnccc1C(=O)O (centres unmarked) [Example 103, 3-{[(5,6-dimethyl-1,2,3,4-tetrahydronaphthalen-1-yl)methyl]amino}pyridine-4-carboxylic acid]
IC50 (JMJD2C): 100 to 1000 nM

O=C(O)c1ccncc1NCC1CCCc2cc(Oc3cccc(C(F)(F)F)n3)ccc21 (centres unmarked) [Example 104, 3-{[(6-{[6-(trifluoromethyl)pyridin-2-yl]oxy}-1,2,3,4-tetrahydronaphthalen-1-yl)methyl]amino}pyridine-4-carboxylic acid]
IC50 (JMJD2C): 100 to 1000 nM
